Reference: patent publication US20060286159A1 (priority 2003, published 2006)
Entries after “also recorded” stand apart in the source; their conditions may differ.

Columns and labels:
[1] = test system: persistent active tendinopathy of the left Achilles tendon; assay: Example 3: patient case, persistent active tendinopathy of the left Achilles tendon; format: in vivo, human; conditions: patch 30 mcg/hr for 8 weeks
Source text: A patient suffering from persistent active tendinopathy of the left Achilles tendon applies a transdermal patch delivering 30 mcg/hr nitroglycerin for a period of 8 weeks.

[2] = test system: chronic extensor tendinopathy at the elbow; assay: Extensor tendinopathy (tennis elbow) clinical trial (randomized, double blind, placebo controlled)
[3] = test system: Achilles tendinopathy (heels); assay: Three year follow-up study of the Achilles trial of Example 1; format: in vivo, human; conditions: for Night Pain—All Heels (mean adjusted for baseline) / Pain at Rest—All Heels (mean adjusted for baseline) / Pain With Activity—All Heels (mean adjusted for baseline) / Tenderness—All Heels (mean adjusted for baseline) / Hop Test—All Heels (mean adjusted for baseline): N=32; for Pain With Activity—All Heels (mean adjusted for baseline): scale 0-4; for Tenderness—All Heels (mean adjusted for baseline): scale 0-3; for Hop Test—All Heels (mean adjusted for baseline): pain score 0-10
Protocol: A three year follow-up study of the experiment presented in Example 1 was performed. […] Among the 52 patients in follow-up study ([…]), 15 had bilateral involvement (7 on the active patch and 8 on placebo). The results are presented in two sets. The follow-up study used the same outcome measures as were used in the original parent study.
The first set compares the results of the 68 heels and the second set results are shown for the 52 patients by averaging results for patients with bilateral involvement. Analyses were performed as analyses of covariance, with the baseline assessment as the covariate, to adjust the results for baseline differences. Mean results shown in Tables III-XIII below are adjusted for the baseline values.

[4] = test system: de Quervain's tendinopathy in the right extensor tendons of the thumb; assay: Example 4: patient case, de Quervain's tendinopathy; format: in vivo, human
Source text: A patient suffering de Quervain's tendinopathy in the right extensor tendons of the thumb applies a transdermal patch delivering 10 mcg/hr nitroglycerin for a period of 24 weeks. This condition can be caused due to the arrival of a new baby and the consequent carrying as an unusual daily activity, and as is common, physical therapy and intermittent use of a wrist splint may provide little relief of symptoms.

[5] = 3 years, N=24, placebo 0.51, p=0.09
[6] = 24 weeks, N=24, placebo 0.86, p=0.09

## O=[N+]([O-])OCC(CO[N+](=O)[O-])O[N+](=O)[O-] [glyceryl trinitrate, 1,2,3-propanetriol trinitrate]
[1]; eight weeks following discontinuation
  pain and tenderness of the ankle after discontinuation: continue to feel decreased pain and tenderness of the ankle
[1]; person
  pain and tenderness of the ankle during therapy: reduction of pain and tenderness of the ankle by day 2 of therapy
[2]; GTN group
  Headache (Days) Average: GTN 5 Days
  Headache (Days) Median: GTN 3 Days
  Headache (Days) Total: 136 days
  Headache: percentage of patients: 63%
  No Side Effects: GTN 35%
  Other Noted Side-Effects: Increase Axillary Sweating: Sweating 2%
[2]; Week 2 (p=0.01)
  Pain Outcomes: elbow pain with activity vs placebo: significant decrease; also recorded: Decreased
[2]; Week 6 (p=0.02) / 12 (p=0.02)
  Tenderness Outcomes: lateral epicondylar tenderness vs placebo: significant decreases; also recorded: significantly less; also recorded: Decreased
[2]; Week 24 (p=0.03)
  Force Outcomes: ORI-TETS mean peak force vs placebo: significant increase; also recorded: Increased Mean
  Force Outcomes: ORI-TETS mean total work vs placebo: significant increase; also recorded: Increased Mean
[2]; application site, GTN group
  Other Noted Side-Effects: Rash: Rash 21%,
[2]; excellent result at 24 weeks, Chi square p=0.005
  number needed to treat (NNT): 4.8
[2]; patients, all GTN group
  Discontinuations: Headache: Headache 2
  Discontinuations: Rash: Rash 2,
[2]; used for headache, GTN group
  Paracetamol Average: GTN 8 tablets
  Paracetamol Median: GTN 4 tablets
  Paracetamol Total: GTN 214 tablets
[2]; week 24, more patients asymptomatic with activities of daily living than placebo, 1.25 mg/24 h patch + rehabilitation
  Improved Patient Outcomes: 21%
[2]; week 24, placebo 60%
  patients with excellent improvement, patient reported: 81%
[3]; 3 years, N=24, placebo 0.29, p=0.06
  Night Pain—Average Result Used for Bilateral Patients: 0.07
[3]; 3 years, N=24, placebo 0.39, p=0.08
  Pain at Rest—Average Result Used for Bilateral Patients: 0.10
[3]; [5]
  Hop Test—Average Result Used for Bilateral Patients: 0.15
  Pain With Activity—Average Result Used for Bilateral Patients: 0.15
[3]; 3 years, N=24, placebo 0.66, p=0.052
  Tenderness—Average Result Used for Bilateral Patients: 0.33
[3]; 3 years, N=24, placebo 71.4%, p=0.16
  RTS, %: 87.5%
[3]; 3 years, placebo 0.27, p=0.07
  Night Pain—All Heels (mean adjusted for baseline): 0.10
[3]; 3 years, placebo 0.35, p=0.07
  Pain at Rest—All Heels (mean adjusted for baseline): 0.10
[3]; 3 years, placebo 0.50, p=0.059
  Pain With Activity—All Heels (mean adjusted for baseline): 0.16
[3]; 3 years, placebo 0.66, p=0.031
  Tenderness—All Heels (mean adjusted for baseline): 0.35
[3]; 3 years, placebo 0.96, p=0.07
  Hop Test—All Heels (mean adjusted for baseline): 0.36
[3]; 24 weeks, N=24, placebo 0.34, p=0.11
  Night Pain—Average Result Used for Bilateral Patients: 0.15
[3]; 24 weeks, N=24, placebo 0.46, p=0.20
  Pain at Rest—Average Result Used for Bilateral Patients: 0.26
[3]; [6]
  Hop Test—Average Result Used for Bilateral Patients: 0.44
  Pain With Activity—Average Result Used for Bilateral Patients: 0.44
[3]; 24 weeks, N=24, placebo 0.90, p=0.43
  Tenderness—Average Result Used for Bilateral Patients: 0.70
[3]; 24 weeks, placebo 0.30, p=0.36
  Night Pain—All Heels (mean adjusted for baseline): 0.19
[3]; 24 weeks, placebo 0.41, p=0.35
  Pain at Rest—All Heels (mean adjusted for baseline): 0.29
[3]; 24 weeks, placebo 0.78, p=0.22
  Pain With Activity—All Heels (mean adjusted for baseline): 0.52
[3]; 24 weeks, placebo 0.83, p=0.49
  Tenderness—All Heels (mean adjusted for baseline): 0.69
[3]; 24 weeks, placebo 1.57, p=0.026
  Hop Test—All Heels (mean adjusted for baseline): 0.61
[3]; both at 24 weeks and at 3 years
  results of each assessment vs placebo: numerically better results
[4]; 2 years after stop, negative Finklestein test
  pain after administration is stopped: continue to have reduced pain
[4]; patch 10 mcg/hr for 24 weeks, person
  pain during administration: decrease in pain within one day
